Results published in patent US20020137929A1, “1 - (3-heterocyclylphenyl) isothiourea, -isourea, -guanidine and -amidine herbicidal agents” (Intellectual Property Department, BASF Aktiengesellschaft, priority 1998, published 2002).

How the values were obtained:
SETVI (Foxtail, Green) [1] = experiment: Postemergence herbicidal evaluation; type: in vivo, Setaria viridis
In short: (§1)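 Herbicidal effect was judged by eye on a 0–9 scale covering stand, vigor, deformity, size and chlorosis, compared with controls, four to five weeks after seedlings about two weeks old were sprayed (40 psi, ~0.0156–0.500 kg/ha).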

ORYSAT (Rice, Tebonnet) = experiment: Postemergence herbicidal evaluation; type: in vivo, Oryza sativa, (L.) Tebonnet
In short: as §1

ZEAMX (Corn, Field) [2] = experiment: Postemergence herbicidal evaluation; type: in vivo, Zea mays
In short: as §1

ECHCG (Barnyardgrass) = experiment: Preemergence herbicidal evaluation; type: in vivo, Echinochloa crus-galli; conditions: rated 4-5 weeks after treatment
In short: (§2)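 Each species is sown separately in potting soil over roughly an inch of soil before any emergence. The soil surface then receives an aqueous acetone spray delivering about 0.0156 to 0.500 kg/ha of compound. After four to five weeks, injury is scored from 0 to 9 relative to a control.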

SETVI (Foxtail, Green) [3] = experiment: Preemergence herbicidal evaluation; type: in vivo, Setaria viridis; conditions: rated 4-5 weeks after treatment
In short: as §2

[4] = system: TRZAWR (Wheat, Winter, cv Riband); experiment: Preemergence herbicidal evaluation; type: in vivo, Triticum aestivum; conditions: rated 4-5 weeks after treatment
In short: as §2

ZEAMX (Corn, Field) [5] = experiment: Preemergence herbicidal evaluation; type: in vivo, Zea mays; conditions: rated 4-5 weeks after treatment
In short: as §2

[6] = system: ECHORC (Watergrass (Calif.)); experiment: Preemergence weed control under flooded paddy conditions; type: in vivo, Echinochloa oryzoides; conditions: rated 3-4 weeks after treatment
In short: (§3)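 Visual injury scored 0-9 against control three to four weeks post-treatment, greenhouse-grown. Application: acetone/water (50/50) solutions dosed directly into flood water (1.5-3 cm over silt loam, planted top 0.5 cm), roughly 0.0313 to 0.500 kg/ha active ingredient.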

CYPIR (Rice Flatsedge) [7] = experiment: as above; type: in vivo, Cyperus iria; conditions: rated 3-4 weeks after treatment
In short: as §3

CYPSE (Flatsedge) [8] = experiment: as above; type: in vivo, Cyperus serotinus; conditions: rated 3-4 weeks after treatment
In short: as §3

[9] = system: ECHORC (Watergrass (Calif.)); experiment: Postemergence weed control under flooded paddy conditions; type: in vivo, Echinochloa oryzoides; conditions: postemergence weeds, 3-4 weeks after treatment
In short: (§4)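 Injury ratings (0–9 scale covering stand, vigor, malformation, size, chlorosis and overall appearance versus control) were made three to four weeks after treatment. Test material, about 0.0313 to 0.500 kg/ha a.i. in 50/50 v/v aqueous/acetone, was added to flood water 1.5 to 3 cm deep over 3 to 5 cm weeds and 1.5 to 2.5 leaf rice.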

CYPIR (Rice Flatsedge) [10] = experiment: as above; type: in vivo, Cyperus iria; conditions: postemergence weeds, 3-4 weeks after treatment
In short: as §4

CYPSE (Flatsedge) [11] = experiment: as above; type: in vivo, Cyperus serotinus; conditions: postemergence weeds, 3-4 weeks after treatment
In short: as §4

[12] = system: SAGPY (Arrowhead (Pygmaea)); experiment: as above; type: in vivo, Sagittaria pygmaea; conditions: postemergence weeds, 3-4 weeks after treatment
In short: as §4

SMILES: C[C@@H](C(=O)O)N1C(=O)CS/C1=N/c1cc(-n2c(=O)cc(C(F)(F)F)n(C)c2=O)c(F)cc1Cl [Compound 51, 2-{{2-Chloro-5-[3,6-dihydro-3-methyl-2,6-dioxo-4-(trifluoromethyl)-1(2H)-pyrimidinyl]-4-fluoro-phenyl}imino}-α-methyl-4-oxo-3-thiazolidineacetic acid, L-]
- Postemergence herbicidal rating SETVI (SETVI (Foxtail, Green) [1]; Rate 0.0158 kg/ha): 7.0
- Postemergence herbicidal rating SETVI (SETVI (Foxtail, Green) [1]; Rate 0.0315 kg/ha): 9.0
- Postemergence herbicidal rating SETVI (SETVI (Foxtail, Green) [1]; Rate 0.0630 kg/ha): 9.0
- Postemergence herbicidal rating ORYSAT (ORYSAT (Rice, Tebonnet); Rate 0.0158 kg/ha): 2.0
- Postemergence herbicidal rating ORYSAT (ORYSAT (Rice, Tebonnet); Rate 0.0315 kg/ha): 3.5
- Postemergence herbicidal rating ORYSAT (ORYSAT (Rice, Tebonnet); Rate 0.0630 kg/ha): 4.0
- Postemergence herbicidal rating ZEAMX (ZEAMX (Corn, Field) [2]; Rate 0.0158 kg/ha): 7.0
- Postemergence herbicidal rating ZEAMX (ZEAMX (Corn, Field) [2]; Rate 0.0315 kg/ha): 7.5
- Postemergence herbicidal rating ZEAMX (ZEAMX (Corn, Field) [2]; Rate 0.0630 kg/ha): 7.5
- Preemergence herbicidal rating ECHCG (ECHCG (Barnyardgrass); rate 0.0156 kg/ha): 0.0
- Preemergence herbicidal rating ECHCG (ECHCG (Barnyardgrass); rate 0.0313 kg/ha): 0.0
- Preemergence herbicidal rating ECHCG (ECHCG (Barnyardgrass); rate 0.0625 kg/ha): 1.0
- Preemergence herbicidal rating ECHCG (ECHCG (Barnyardgrass); rate 0.1250 kg/ha): 1.0
- Preemergence herbicidal rating ECHCG (ECHCG (Barnyardgrass); rate 0.2500 kg/ha): 1.0
- Preemergence herbicidal rating SETVI (SETVI (Foxtail, Green) [3]; rate 0.0156 kg/ha): 1.0
- Preemergence herbicidal rating SETVI (SETVI (Foxtail, Green) [3]; rate 0.0313 kg/ha): 0.0
- Preemergence herbicidal rating SETVI (SETVI (Foxtail, Green) [3]; rate 0.0625 kg/ha): 3.0
- Preemergence herbicidal rating SETVI (SETVI (Foxtail, Green) [3]; rate 0.1250 kg/ha): 6.0
- Preemergence herbicidal rating SETVI (SETVI (Foxtail, Green) [3]; rate 0.2500 kg/ha): 9.0
- Preemergence herbicidal rating TRZAWR ([4]; rate 0.0156 kg/ha): 0.0
- Preemergence herbicidal rating TRZAWR ([4]; rate 0.0313 kg/ha): 0.0
- Preemergence herbicidal rating TRZAWR ([4]; rate 0.0625 kg/ha): 0.0
- Preemergence herbicidal rating TRZAWR ([4]; rate 0.1250 kg/ha): 2.0
- Preemergence herbicidal rating TRZAWR ([4]; rate 0.2500 kg/ha): 6.0
- Preemergence herbicidal rating ZEAMX (ZEAMX (Corn, Field) [5]; rate 0.0156 kg/ha): 1.0
- Preemergence herbicidal rating ZEAMX (ZEAMX (Corn, Field) [5]; rate 0.0313 kg/ha): 1.0
- Preemergence herbicidal rating ZEAMX (ZEAMX (Corn, Field) [5]; rate 0.0625 kg/ha): 1.0
- Preemergence herbicidal rating ZEAMX (ZEAMX (Corn, Field) [5]; rate 0.1250 kg/ha): 2.0
- Preemergence herbicidal rating ZEAMX (ZEAMX (Corn, Field) [5]; rate 0.2500 kg/ha): 6.0
- Herbicidal rating ECHORC ([6]; 0.0625 kg/ha): 0.0
- Herbicidal rating ECHORC ([6]; 0.1250 kg/ha): 0.0
- Herbicidal rating ECHORC ([6]; 0.2500 kg/ha): 0.0
- Herbicidal rating CYPIR (CYPIR (Rice Flatsedge) [7]; 0.0625 kg/ha): 2.0
- Herbicidal rating CYPIR (CYPIR (Rice Flatsedge) [7]; 0.1250 kg/ha): 3.0
- Herbicidal rating CYPIR (CYPIR (Rice Flatsedge) [7]; 0.2500 kg/ha): 6.0
- Herbicidal rating CYPSE (CYPSE (Flatsedge) [8]; 0.0625 kg/ha): 0.0
- Herbicidal rating CYPSE (CYPSE (Flatsedge) [8]; 0.1250 kg/ha): 0.0
- Herbicidal rating CYPSE (CYPSE (Flatsedge) [8]; 0.2500 kg/ha): 0.0
- Herbicidal rating ECHORC ([9]; rate 0.0625 kg/ha): 0.0
- Herbicidal rating ECHORC ([9]; rate 0.1250 kg/ha): 0.0
- Herbicidal rating ECHORC ([9]; rate 0.2500 kg/ha): 0.0
- Herbicidal rating CYPIR (CYPIR (Rice Flatsedge) [10]; rate 0.0625 kg/ha): 2.0
- Herbicidal rating CYPIR (CYPIR (Rice Flatsedge) [10]; rate 0.1250 kg/ha): 3.0
- Herbicidal rating CYPIR (CYPIR (Rice Flatsedge) [10]; rate 0.2500 kg/ha): 6.0
- Herbicidal rating CYPSE (CYPSE (Flatsedge) [11]; rate 0.0625 kg/ha): 0.0
- Herbicidal rating CYPSE (CYPSE (Flatsedge) [11]; rate 0.1250 kg/ha): 0.0
- Herbicidal rating CYPSE (CYPSE (Flatsedge) [11]; rate 0.2500 kg/ha): 0.0
- Herbicidal rating SAGPY ([12]; rate 0.0625 kg/ha): 0.0
- Herbicidal rating SAGPY ([12]; rate 0.1250 kg/ha): 0.0
- Herbicidal rating SAGPY ([12]; rate 0.2500 kg/ha): 0.0
